# Test results from patent publication US20120196828A1, “SENSITIZATION OF CANCER CELLS TO TREATMENT” (priority 2011, published 2012).
# Several values for one entry are separate records, joined by “and”; a condition that tells them apart may be missing. Equal values may be shown once.
# What was measured:
# [1] = Body weight, deaths and clinical observations in the BxPC-3 xenograft study
# Method: (§1) All experiments were conducted on female athymic nude mice (Hsd:Athymic Nude-Foxn1nu) supplied by Harlan (Indianapolis, Ind.). Mice were received at four weeks of age, 12-15 grams in weight, and were acclimated for seven days prior to handling. The mice were housed in microisolator cages (Lab Products, Seaford, Del.) and maintained under specific pathogen-free conditions. All procedures were carried out under appropriate institutional guidelines for animal care.
# (§2) Seven days following inoculation, tumors were measured using calipers and tumor weight was calculated using the animal study management software, Study Director V.1.7.54 k (Study Log). See Britten C D, et al. Enhanced antitumor activity of 6-hydroxymethylacylfulvene in combination with irinotecan and 5-fluorouracil in the HT29 human colon tumor xenograft model. Cancer Res 59:1049-1053, 1999. […] Body weights were recorded when the mice were randomized and were taken twice weekly thereafter in conjunction with tumor measurements, on each of Days 1, 4, 8, 11, 15, 18, 22, 26, 30, 33, and 36.
# (§3) The study was terminated when the vehicle control reached an endpoint of 1500 mg, on Day 36.
# [2] = test system: metastatic gastric cancer; conditions: patients with metastatic gastric cancer; ODSH with mDCF
# Method: Subjects included in the trial are: patients diagnosed with metastatic gastric, including cancer at the gastroesophageal junction. […] Subjects in each arm of the trial are evaluated for time to tumor progression, weight loss, pain control, six-month survival rates, and overall survival.
# [3] = test system: metastatic pancreatic cancer; conditions: patients with metastatic pancreatic cancer; ODSH 4 mg/kg bolus then 0.375 mg/kg/hr infusion
# Method: Subjects included in the trial are: patients diagnosed with metastatic pancreatic cancer. […] See also, Burris, H. A., et al., 1997, J. Clin. Oncol. 15(6):2403-13. […] J. Clin. Oncol. 30(1):15-20. Subjects in each arm of the trial are evaluated for time to tumor progression, weight loss, pain control, six-month survival rates, and overall survival.
# Subjects included in the trial are: patients diagnosed with metastatic pancreatic cancer.
# Next, 50 subjects are then randomly assigned to one of two arms: either a control or a treatment group.
# [4] = test system: BxPC-3 Human Pancreas Tumor Xenograft; experiment: BxPC-3 human pancreas tumor xenograft model: tumor weight and tumor growth inhibition; assay type: in vivo, mouse
# Method: Compounds tested in the experiment were as follows. […] A concentration of 4.8 mg/ml was formulated to deliver a 24 mg/kg dose at a 5 ml/kg dose volume when administered subcutaneously. […] Nab-paclitaxel was manufactured by Abraxis BioScience LLC (Bridgewater, N.J.) and diluted in a 0.9% NaCl solution to a concentration of 1.5 mg/ml to deliver 15 mg/kg, in a 10 ml/kg dose volume. All standard agent preparations were made fresh prior to their administration.
# BxPC-3 cells were obtained and prepared as follows. The BxPC-3 pancreas tumor cell line was received from American Type Culture Collection (ATCC, Manassas, Va.). Cultures were maintained in RPMI 1640 medium (Hyclone, Logan, Utah) supplemented with 5% fetal bovine serum. The cells were housed in a 5% CO2 atmosphere. The cultures were expanded in tissue culture flasks at a 1:3 split ratio until a sufficient amount of cells were harvested.
# as §1
# BxPC-3 Human Pancreas Tumor Xenograft Model: Female athymic nude mice per treatment condition were inoculated subcutaneously in the right flank with 0.1 ml of a 50% RPMI 1640/50% Matrigel™ (BD Biosciences, Bedford, Mass.) mixture containing a suspension of BxPC-3 tumor cells (approximately 5×10^6 cells/mouse).
# as §2, §3
# Mean tumor growth inhibition (TGI) was calculated utilizing Formula A below (deaths were not included in the TGI calculations).
# All statistical analyses in the xenograft study were performed with GraphPad Prism® v4 software.
# [5] = biological target: Receptor for Advanced Glycation End products (RAGE) / HMGB1 (Homo sapiens, UniProt Q15109); conditions: Rao et al. 2010; WO 2009/015183; cited from earlier work
# anti-thrombin III = anti-thrombin III (Homo sapiens, UniProt P01008); conditions: cited from earlier work
# [6] = ANOVA with Tukey's Multiple Comparison Test
# Sequence of anti-thrombin III (P01008 33-464, species assumed): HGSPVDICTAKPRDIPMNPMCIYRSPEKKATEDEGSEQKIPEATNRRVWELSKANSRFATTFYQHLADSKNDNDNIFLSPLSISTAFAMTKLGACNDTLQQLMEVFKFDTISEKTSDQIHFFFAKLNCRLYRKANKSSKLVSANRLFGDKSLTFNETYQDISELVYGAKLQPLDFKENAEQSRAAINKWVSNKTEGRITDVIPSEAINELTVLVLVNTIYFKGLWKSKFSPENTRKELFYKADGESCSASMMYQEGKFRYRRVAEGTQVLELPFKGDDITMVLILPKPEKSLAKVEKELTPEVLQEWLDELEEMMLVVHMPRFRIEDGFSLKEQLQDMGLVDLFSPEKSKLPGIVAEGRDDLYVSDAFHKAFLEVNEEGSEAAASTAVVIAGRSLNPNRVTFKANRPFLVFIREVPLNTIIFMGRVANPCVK
# Sequence of Receptor for Advanced Glycation End products (RAGE) / HMGB1 (Q15109 23-344 limits assumed, species assumed): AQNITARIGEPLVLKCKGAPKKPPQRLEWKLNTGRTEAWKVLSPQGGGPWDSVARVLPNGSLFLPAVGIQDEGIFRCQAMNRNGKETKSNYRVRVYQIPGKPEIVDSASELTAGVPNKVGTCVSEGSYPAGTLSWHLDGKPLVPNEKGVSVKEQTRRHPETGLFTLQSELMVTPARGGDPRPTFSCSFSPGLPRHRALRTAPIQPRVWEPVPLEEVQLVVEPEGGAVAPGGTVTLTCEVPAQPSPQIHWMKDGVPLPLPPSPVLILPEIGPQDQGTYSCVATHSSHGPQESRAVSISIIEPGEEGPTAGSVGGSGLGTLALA
substance,measurement,setting,value
"2-O, 3-O desulfated heparin [ODSH]",Day 1 Average Weight,[1]; Day 1,21.54 g
same,Day 4 Average Weight,[1]; Day 4,21.18 g
same,Day 4 % Weight Loss or Gain,"[1]; Day 4, vs starting weight",−1.67%
same,Day 8 Average Weight,[1]; Day 8,21.18 g
same,Day 8 % Weight Loss or Gain,"[1]; Day 8, vs starting weight",−1.67%
same,Day 11 Average Weight,[1]; Day 11,20.95 g
same,Day 11 % Weight Loss or Gain,"[1]; Day 11, vs starting weight",−2.74%
same,Day 15 Average Weight,[1]; Day 15,21.08 g
same,Day 15 % Weight Loss or Gain,"[1]; Day 15, vs starting weight",−2.14%
same,Day 18 Average Weight,[1]; Day 18,21.04 g
same,Day 18 % Weight Loss or Gain,"[1]; Day 18, vs starting weight",−2.32%
same,Day 22 Average Weight,[1]; Day 22,22.53 g
same,Day 22 Average Weight,[1]; Day 22 (Table 12),21.56 g
same,Day 22 % Weight Loss or Gain,"[1]; Day 22 (Table 12), vs starting weight",0.09%
same,Day 22 % Weight Loss or Gain,"[1]; Day 22, vs starting weight",4.60%
same,Day 26 Average Weight,[1]; Day 26 (Table 12),22.14 g
same,Day 26 % Weight Loss or Gain,"[1]; Day 26 (Table 12), vs starting weight",2.79%
same,Day 30 % Weight Loss or Gain,"[1]; Day 30, vs starting weight, groups 3 and 5 switched regimen from Day 26",4.92%
same,Day 30 Average Weight,"[1]; Day 30, groups 3 and 5 switched to gemcitabine + nab-paclitaxel regimen from Day 26",22.60 g
same,Day 26 Average Weight,[1]; Table 13 Day 26,22.46 g
same,Day 26 % Weight Loss or Gain,"[1]; Table 13 Day 26, vs starting weight",4.27%
same,Tolerability / toxicity of the regimen,"[1]; athymic nude mice, dosing per Table 1",well-tolerated
same,Starting Weight,"[1]; baseline body weight, female athymic nude mice, BxPC-3 xenograft study",21.54 g
same,Maximum weight loss,[1]; body weight of mice,2.7%
same,Day bruising of the abdomens was first observed,"[1]; mouse, in vivo",15 days
same,Day bruising of the tails was first observed,"[1]; mouse, in vivo",8 days
same,Day by which the mice recovered their weight,"[1]; mouse, in vivo",≤ 22 days
same,Day on which maximum weight loss was reached,"[1]; mouse, in vivo",11 days
same,Day swelling of the tail was first observed,"[1]; mouse, in vivo",11 days
same,Mice demonstrating bruising on the tails or abdomen (site of injection),[1]; of ten mice,All ten
same,Mice demonstrating swelling of the tail,[1]; of ten mice,One of the ten
same,Deaths,"[1]; total deaths on or before Day 26, N = 10 per group",0
same,Deaths,"[1]; total deaths on or before Day 36, n = 10 per group",0
same,Therapeutic benefit of addition of ODSH to chemotherapy in gastric cancer,[2],therapeutic benefit
same,Therapeutic benefit of addition of ODSH to chemotherapy in pancreatic cancer,[3],therapeutic benefit
same,Difference in tumor weight on Day 26 compared to vehicle control,[4]; [6],No significant difference
same,Difference in tumor weight on Day 36 compared to vehicle control,[4]; [6],No significant difference
same,"Mean tumor weight, Day 1","[4]; Day 1 (randomization), group mean, dosing per Table 1",122.4 mg
same,"Median tumor weight, Day 1","[4]; Day 1 (randomization), group median, dosing per Table 1",22.9 mg
same,"Tumor weight, individual mouse, Day 1","[4]; Day 1 (randomization), individual mouse, dosing per Table 1 (ODSH 24, oxaliplatin 10, gemcitabine 80, nab-paclitaxel 15 mg/kg)",140 mg and 116 mg and 172 mg and 94 mg and 131 mg and 106 mg and 125 mg and 143 mg and 129 mg
same,"Mean tumor weight, Day 4","[4]; Day 4, group mean, dosing per Table 1",134.0 mg
same,"Median tumor weight, Day 4","[4]; Day 4, group median, dosing per Table 1",28.6 mg
same,"Tumor weight, individual mouse, Day 4","[4]; Day 4, individual mouse, dosing per Table 1",162 mg and 98 mg and 110 mg and 141 mg and 97 mg and 181 mg and 135 mg and 130 mg and 144 mg and 133 mg
same,"Mean tumor weight, Day 8","[4]; Day 8, group mean, dosing per Table 1",146.0 mg
same,"Median tumor weight, Day 8","[4]; Day 8, group median, dosing per Table 1",40.4 mg
same,"Tumor weight, individual mouse, Day 8","[4]; Day 8, individual mouse, dosing per Table 1",218 mg and 118 mg and 144 mg and 183 mg and 125 mg and 222 mg and 126 mg and 155 mg and 157 mg and 148 mg
same,"Mean tumor weight, Day 11","[4]; Day 11, group mean, dosing per Table 1",187.6 mg
same,"Median tumor weight, Day 11","[4]; Day 11, group median, dosing per Table 1",162.1 mg
same,"Tumor weight, individual mouse, Day 11","[4]; Day 11, individual mouse, dosing per Table 1",149 mg and 288 mg and 142 mg and 175 mg and 243 mg and 146 mg and 252 mg and 137 mg and 140 mg and 203 mg
same,"Mean tumor weight, Day 15","[4]; Day 15, group mean, dosing per Table 1",263.0 mg
same,"Median tumor weight, Day 15","[4]; Day 15, group median, dosing per Table 1",250.0 mg
same,"Tumor weight, individual mouse, Day 15","[4]; Day 15, individual mouse, dosing per Table 1",206 mg and 340 mg and 224 mg and 263 mg and 348 mg and 237 mg and 321 mg and 208 mg and 218 mg and 264 mg
same,"Mean tumor weight, Day 18","[4]; Day 18, group mean, dosing per Table 1",338.5 mg
same,"Median tumor weight, Day 18","[4]; Day 18, group median, dosing per Table 1",304.7 mg
same,"Tumor weight, individual mouse, Day 18","[4]; Day 18, individual mouse, dosing per Table 1",278 mg (2×) and 489 mg and 291 mg and 288 mg and 419 mg and 256 mg and 415 mg and 318 mg and 352 mg
same,"Mean tumor weight, Day 22","[4]; Day 22, group mean, dosing per Table 1",453.8 mg
same,"Median tumor weight, Day 22","[4]; Day 22, group median, dosing per Table 1",425.4 mg
same,"Tumor weight, individual mouse, Day 22","[4]; Day 22, individual mouse, dosing per Table 1",358 mg and 622 mg and 360 mg and 400 mg and 556 mg and 402 mg and 551 mg and 449 mg and 326 mg and 515 mg
same,"Mean tumor weight, Day 26","[4]; Day 26, group mean, dosing per Table 1",616.2 mg
same,"Median tumor weight, Day 26","[4]; Day 26, group median, dosing per Table 1",551.3 mg
same,"Tumor weight, individual mouse, Day 26","[4]; Day 26, individual mouse, dosing per Table 1",509 mg and 894 mg and 478 mg and 529 mg and 770 mg and 573 mg and 724 mg and 524 mg and 394 mg and 766 mg
same,Day 26 Tumor Weight,"[4]; Day 26, mean ± Std Err, treatment administered until Day 26",616.2 ± 50.9 mg
same,Day 26 % TGI,"[4]; Day 26 vs Day 1, relative to vehicle control (Group 1), deaths not included",11.5% and 11.5 (10/10) %
same,"Mean tumor weight, Day 30","[4]; Day 30, group mean of surviving mice, dosing per Table 1",882.3 mg
same,"Median tumor weight, Day 30","[4]; Day 30, group median, dosing per Table 1",856.4 mg
same,"Tumor weight, individual mouse, Day 30","[4]; Day 30, individual mouse, dosing per Table 1","697 mg and 1,083 mg and 756 mg and 893 mg and 1,201 mg and 820 mg and 945 mg and 764 mg and 555 mg and 1,109 mg"
same,"Mean tumor weight, Day 33","[4]; Day 33, group mean of surviving mice, dosing per Table 1","1,038.6 mg"
same,"Median tumor weight, Day 33","[4]; Day 33, group median, dosing per Table 1",979.8 mg
same,"Tumor weight, individual mouse, Day 33","[4]; Day 33, individual mouse, dosing per Table 1","908 mg and 1,218 mg and 999 mg and 961 mg (2×) and 1,309 mg and 1,087 mg and 871 mg and 733 mg and 1,340 mg"
same,Day 36 Tumor Weight,"[4]; Day 36, treatment administered until Day 35",1270.1 ± 95.5 mg
same,"Median tumor weight, Day 36","[4]; Day 36, group median, dosing per Table 1","1,151.5 mg"
same,"Tumor weight, individual mouse, Day 36","[4]; Day 36, individual mouse, dosing per Table 1","1,072 mg and 1,450 mg and 1,153 mg and 1,150 mg (2×) and 1,654 mg and 1,376 mg and 1,037 mg and 836 mg and 1,823 mg"
same,Day 36 % TGI,"[4]; Day 36 vs Day 1, relative to vehicle control (Group 1), deaths not included",18.2%
same,Overall antitumor effect (summary statement),[4]; xenograft model of human pancreatic cancer,inhibits tumor growth to a similar extent as treatment with gemcitabine
same,Binding of RAGE by HMGB1 and other RAGE ligands,[5],inhibit binding
same,Kd,anti-thrombin III,~339 µM
same,Kd for anti-thrombin III,anti-thrombin III,~4000 µg/mL
